Data on one molecule can be found in PubChem BioAssay (NCI).

Test systems include MOLT-4 leukemia; NCI-H522 lung; HOP-62 NSCLC; A549 NSCLC; M14 melanoma; SF-539 CNS; HT29 colon; HOP-92 NSCLC; 786-0 renal; HCT-116 colon.
Assay in all cases: growth of human tumour cells (NCI), 48 h

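Results reflect a 48-hour exposure of cells in 96-well plates to compound at five concentrations. GI50 marks 50% less growth. TGI: total growth inhibition.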

Regarding `CCCc1nc2c(C)cc(-c3nc4ccccc4n3C)cc2n1Cc1ccc(-c2ccccc2C(=O)O)cc1`, the GI50 is 32.4 µM in the experiment with MOLT-4 leukemia; 22 µM in the experiment with NCI-H522 lung; 43.5 µM with HOP-62 NSCLC; 22.8 µM in the experiment on A549 NSCLC; 34.5 µM in the experiment on M14 melanoma; 46.5 µM with SF-539 CNS. In addition, the GI50 was 35.8 µM in the experiment with HT29 colon, 25.7 µM in the experiment on HOP-92 NSCLC, 41.4 µM with 786-0 renal and 43.4 µM with HCT-116 colon. Moreover, the TGI in the experiment with MOLT-4 leukemia is over 100 µM; in the experiment with NCI-H522 lung, 46.5 µM; in the experiment on HOP-62 NSCLC, over 100 µM; in the experiment with A549 NSCLC it was over 100 µM; with M14 melanoma it was over 100 µM; in the experiment on SF-539 CNS, over 100 µM. Moreover, the TGI in the experiment on HT29 colon, with HOP-92 NSCLC, in the experiment with 786-0 renal and with HCT-116 colon was over 100 µM each time.
